# Data: article PMC9942557, “Bolaamphiphile Analogues of 12-bis-THA Cl2 Are Potent Antimicrobial Therapeutics with Distinct Mechanisms of Action against Bacterial, Mycobacterial, and Fungal Pathogens” (mSphere, 2022)
# Like-named read-outs stand apart in the source and are kept apart here.
# Legend:
# [1] = test system: P. aeruginosa NCTC 13437; assay: Checkerboard synergy assay; format: cell-based, Pseudomonas aeruginosa
# [2] = test system: E. coli NCTC 12923; assay: Fixed-concentration (0.25× MIC bolalipid) synergy broth microdilution; format: cell-based; conditions: Escherichia coli, NCTC12923, E. coli NCTC 12923, read-out: MIC of aminoglycoside
# [3] = test system: K. pneumoniae NCTC 13368; assay: as above; format: cell-based, Klebsiella pneumoniae; conditions: Klebsiella pneumoniae, NCTC13368, K. pneumoniae NCTC 13368, read-out: MIC of aminoglycoside
# [4] = test system: P. aeruginosa RP73; assay: Checkerboard synergy assay; format: cell-based, Pseudomonas aeruginosa
# [5] = test system: P. aeruginosa PAO1; assay: Fixed-concentration (0.25× MIC bolalipid) synergy broth microdilution; format: cell-based, Pseudomonas aeruginosa; conditions: Pseudomonas aeruginosa, PAO1, P. aeruginosa PAO1, read-out: MIC of aminoglycoside
# [6] = test system: A. baumannii AYE; assay: as above; format: cell-based; conditions: Acinetobacter baumannii
# [7] = test system: A. baumannii ATCC 17978; assay: as above; format: cell-based; conditions: Acinetobacter baumannii, ATCC17978, A. baumannii ATCC 17978, read-out: MIC of aminoglycoside
# [8] = test system: Pseudomonas aeruginosa RP73; assay: In vitro pharmacodynamic (PD) assay; conditions: P. aeruginosa RP73; combination 2:1 (wt/wt)
# Protocol: In vitro PD assays were performed with Pseudomonas aeruginosa RP73 cultured in Roswell Park Memorial Institute 1640 medium (RPMI) supplemented with 5% Mueller-Hinton broth (MHB) ([35]). Bacteria were cultured overnight in 10 mL of RPMI–5% MHB at 37°C and diluted just prior to plate inoculation to an OD600 of 0.002. Stock solutions of colistin or tobramycin were prepared in sterile MilliQ water at a concentration of 200× MIC. Octa-bola was prepared in methanol at 2,000× MIC and diluted in water to 200× MIC. A dilution series was made in the top row of a polypropylene 96-well plate from 200× MIC to 0.2× MIC in a volume of 100 μL, to which 100 μL of the bacterial suspension was added to have a total of 1 × 10^6 log-phase CFU in 200 μL. The first time zero sample was taken <30 s after addition of bacteria to the plate, with further samples taken at appropriate intervals thereafter. […] Fifteen microliters was removed from each well, diluted 1:1,000 in phosphate-buffered saline, and plated onto RPMI–5% MH agar plates. The plates were incubated at 37°C overnight for CFU counting.
# CFU data were log10 transformed, and the bacterial net growth rate was determined from the increase or decrease in CFU during the time of exposure to the antibiotics as the coefficient of a linear regression of log10 CFU as a function of time. The intercept of the regression was fixed by forcing the regression lines through the first CFU measurement (0 min) at a given antimicrobial concentration. The pharmacodynamic function according to Regoes et al. ([36]) describes the relationship between bacterial net growth rate (ψ) and the concentration of an antimicrobial (a): ψmax − ([ψmax − ψmin][a/zMIC])^κ/([a/zMIC]^κ − [ψmin/ψmax]). Fitting this function to the net bacterial growth rates in OriginPro 2020 (OriginLab Corporation, Northampton, MA) generates the parameters ψmin and ψmax (minimum and maximum growth rates, respectively), zMIC (the pharmacodynamic MIC), and κ (a measure of the cooperativity). […]
# [9] = test system: P. aeruginosa NCTC 13437; assay: Fixed-concentration (0.25× MIC bolalipid) synergy broth microdilution; format: cell-based, Pseudomonas aeruginosa; conditions: Pseudomonas aeruginosa, NCTC13437, P. aeruginosa NCTC 13437, read-out: MIC of aminoglycoside
# [10] = test system: Pseudomonas aeruginosa RP73; assay: Intrahemocoelic G. mellonella infection model; format: in vivo, Galleria mellonella; conditions: 96 h
# [11] = test system: K. pneumoniae M6; assay: Fixed-concentration (0.25× MIC bolalipid) synergy broth microdilution; format: cell-based; conditions: Klebsiella pneumoniae
# [12] = test system: P. aeruginosa PAO1; assay: Checkerboard synergy assay; format: cell-based, Pseudomonas aeruginosa
# [13] = in the presence of 0.25× MIC Octa-Bola
# [14] = in the presence of 0.25× MIC Octa-C6
# [15] = in the presence of 0.25× MIC Octa-C10
# [16] = No bola, read-out: MIC of aminoglycoside
# [17] = in the presence of 0.25× MIC Octa-Bola, read-out: MIC of aminoglycoside
# [18] = in the presence of 0.25× MIC Octa-C6, read-out: MIC of aminoglycoside
# [19] = in the presence of 0.25× MIC Octa-C10, read-out: MIC of aminoglycoside
compound,measurement,setting,value
NC[C@H]1O[C@H](O[C@H]2[C@H](O)[C@@H](O[C@H]3O[C@H](CO)[C@@H](O)[C@H](N)[C@H]3O)[C@H](N)C[C@@H]2N)[C@H](N)C[C@@H]1O [Tobramycin],MIC alone Antibiotic,[1],64 µg/mL
same,MIC,[2]; No bola,2 µg/mL
same,MIC,[2]; [13],1 µg/mL
same,MIC,[2]; [14],2 µg/mL
same,MIC,[2]; [15],1 µg/mL
same,MIC,[3]; No bola,8 µg/mL
same,MIC,[3]; [13],4 µg/mL
same,MIC,[3]; [14],16 µg/mL
same,MIC,[3]; [15],8 µg/mL
same,MIC alone Antibiotic,[4],2 µg/mL
same,MIC,[5]; No bola,1 µg/mL
same,MIC,[5]; [13],0.5 µg/mL
same,MIC,[5]; [14],0.5 µg/mL
same,MIC,[5]; [15],0.25 µg/mL
same,MIC,[6]; [16],64 µg/mL
same,MIC,[6]; [17],8 µg/mL
same,MIC,[6]; [18],16 µg/mL
same,MIC,[6]; [19],4 µg/mL
same,MIC,[7]; No bola,2 µg/mL
same,MIC,[7]; [13],0.125 µg/mL
same,MIC,[7]; [14],0.5 µg/mL
same,MIC,[7]; [15],0.5 µg/mL
same,"bactericidal activity (minimum growth rate, ψmin)",[8],weakly bactericidal
same,MIC,[9]; No bola,64 µg/mL
same,MIC,[9]; [13],8 µg/mL
same,MIC,[9]; [14],8 µg/mL
same,MIC,[9]; [15],4 µg/mL
same,larvae rescued,[10]; 5 mg/kg,37.5%
same,larvae rescued,"[10]; 50 mg/kg, 1 × 10^2 CFU per larva",97.5%
same,MIC,[11]; [16],1 µg/mL
same,MIC,[11]; [17],0.5 µg/mL
same,MIC,[11]; [18],1 µg/mL
same,MIC,[11]; [19],0.25 µg/mL
same,MIC alone Antibiotic,[12],0.5 µg/mL
